From a melting point compilation (Tetko et al.; mined from patent text by program, amines drawn as free bases though some values may be those of a salt)

Row | Compound | melting point [°C]
1 | O=C1c2ccc(Cl)c3c(N4CCCC4)cc(Cl)c(c23)C(=O)N1O | 243 to 245
2 | CCn1c(=O)c2c(O)cc(=O)oc2c2ccc(Cl)cc21 | 276 to 278
3 | COc1cccc([C@]23CCN(C)C[C@@H]2CCC2(C3)OCCO2)c1 (relative stereo) | 124 to 126
4 | COC(=O)Nc1nc(C(=O)C(=O)OC)ns1 | 112 to 117
5 | CCOC(=S)SCCC(=O)N1CCC[C@H]1C(=O)O | 94 to 95
6 | CCc1nn(CCO)c(CC)c1Cc1c(F)cccc1F | 70 to 71
7 | CN(C)Cc1nc(C(=O)N(C)C)nn1-c1ccc(Cl)cc1C(=O)c1ccccc1F | 140 to 142
8 | Cc1cc(-c2ccc(OC3SCC(O)C(O)C3O)cn2)ccn1 (configuration not stated) | 214
9 | CC(=O)NCC=C1CCc2ccc3nc(C)oc3c21 | 188 to 190
10 | CC1(C)C(=O)N(Cl)C(C)(C)C(=O)N1Cl | 176 to 178
11 | N#CNC(=NCCN1CCC(C2(c3ccc(F)cc3)OCCO2)CC1)N1CCCCC1 | 155 to 157
12 | Cc1cc2c(s1)Oc1ccccc1N=C2N1CCN(CCO)CC1 | 87 to 89
13 | OC(COc1ccc(F)cc1)CN1CCC(=C2c3ccc(F)cc3CCn3ncnc32)CC1 (configuration not stated) | 134
14 | CCCCCCC(C)(C)c1cc(O)c(C2=C(CO)CCC(C)C2)c(O)c1 (configuration not stated) | 155 to 156
15 | CCc1c2nc(-c3cc(S(C)(=O)=O)ccc3OCC(C)C)[nH]c(=O)c2nn1CCN1CCOCC1 | 268 to 273
16 | Cc1c(I)c(=O)n(C)c(=O)n1C | 155 to 157

Row | Compound | melting point [°C]
17 | CCc1cn(C2CC(O)C(CCC(=O)Cc3c(Cl)cccc3Cl)O2)c(=O)[nH]c1=O (configuration not stated) | 229 to 230
18 | CC(=O)N1CCN(c2cccc(-n3cnc4cc(C(C)O)ccc43)c2)CC1 (configuration not stated) | 126
19 | CCC1CC2(C)C(CCC3C2CCC2(C)C(OC)CCC32)CC1=O (configuration not stated) | 105 to 107
20 | Cc1ccc(F)cc1NC(=O)c1cc([N+](=O)[O-])ccc1NC(=O)CF | 217 to 219
21 | O=S1CC2CC(CN(Cc3ccccc3)C2)C1 (configuration not stated) | 137 to 138
22 | CCCCCCCCCCc1sc(NC(=O)Nc2c(C(C)C)cccc2C(C)C)nc1C | 101 to 108
23 | COc1cc(C(C)(C)CCCC(=O)OC2CC(C)(C)NC(C)(C)C2)c(O)cc1C(C)(C)CCCC(=O)OC1CC(C)(C)NC(C)(C)C1 | 165 to 168
24 | CC(CCl)=NNC1=Nc2ccc(Cl)cc2C(c2ccccc2)=NC1 | 210 to 227
25 | N[C@@H]1CCC(=O)N[C@@H]1c1cccc(OC(F)(F)F)c1 (relative stereo) | 126 to 130
26 | COc1cc(OC)c(C(=O)n2cccc2Br)cc1OC | 120 to 121
27 | CNC(=O)C1=CC2(CCSCC2)Oc2ccc([N+](=O)[O-])cc21 | 208 to 209
28 | Cc1ccc(-c2c(-c3ccncc3)nc(-c3c(Cl)cccc3Cl)n2C)cc1 | 214 to 217
29 | O=C(NCCOC1CCCCO1)c1cc([N+](=O)[O-])cc([N+](=O)[O-])c1N(CCO)CCCl (configuration not stated) | 106 to 108
30 | CC/C=C\Cn1c(=O)sc2c(N)ncnc21 | 134 to 135
31 | CCN1CCCC1CNC(=O)c1ccc(Cl)nc1Cl (configuration not stated) | 73 to 74

The next lines start with the values.

Row | melting point [°C] | Compound
32 | 45 to 46 | COC(=O)Cc1ccc([N+](=O)[O-])cc1
33 | 153 to 160 | c1ccc(NCCN2CCN(c3cccc4[nH]ccc34)CC2)nc1
34 | 135 to 136 | Cn1nc(-c2c(F)cccc2Cl)nc1-c1cc(-c2ccc(OC(F)(F)F)cc2)sc1Br
35 | 134 to 136 | N#Cc1cc(-c2c3ccccc3cc3sc4ccccc4c23)cc(C#N)c1OCC(=O)O
36 | 101 | CCCN(CCC)C(=O)c1cc2ccccc2c(-c2ccccc2Cl)n1
37 | 86 to 87 | COC(=O)C=Cc1ccc(CO)cc1
38 | 150 to 151 | CCOC(=O)CN1C(=O)Nc2cccc(OC)c2C1C (configuration not stated)
39 | 159 to 161 | Nc1nc2ccccc2c2c1ncn2CCOCc1ccncc1
40 | 193 to 195 | CC(C)CC(=O)C(=O)NCC(=O)c1ccccc1
41 | 132 to 133 | CCOC(=O)C1CCN(S(=O)(=O)c2ccc(Br)cc2)CC1
42 | 206 to 207 | Cc1cccc(CC(=O)NC(C)C)c1NC(=O)c1cc(C(F)(F)F)nn1-c1ncccc1Cl
43 | 120 to 122 | CCN(CC)C(=O)c1cccc(I)c1C(=O)O
44 | 139 to 140 | C1=CN(Cc2ccccc2)CCC1c1cc2ccccc2o1 (configuration not stated)
45 | 143 to 145 | CCOc1cccc(-c2nc(-c3ccccc3COC(=O)OCc3ccccc3-c3n[nH]c(-c4cccc(OCC)c4)n3)n[nH]2)c1
46 | 97 to 98 | BrC(Br)=Cc1ccc(OCc2ccccc2)cc1
47 | 236 to 238 | CC(=O)Nc1ccc2nc3ccccc3c(-c3cc(C)ccc3C)c2c1
48 | 109 to 110 | CN(C)C(=N)Nc1ccccc1-c1cccc(F)c1
49 | 131 to 132 | COc1cc([C@@H](O)[C@@H](C)N2CCC(O)(c3ccccc3)CC2)ccc1OCc1ccccc1 (relative stereo)
50 | 215 to 217 | O=C(O)c1ccccc1Nc1ccc(CCc2ccc(O)c(O)c2)cc1
51 | 233 to 234 | O=C1Nc2ccccc2Oc2c1[nH]c1ccccc21
52 | 210 to 212 | Nc1c2c(nc3ccccc13)CCS2

Row | melting point [°C] | Compound
53 | 219 to 222 | Cc1ccc2c(c1)N(CC(=O)c1ccccc1C)C(=O)C(NC(=O)Nc1cccc(C(=O)O)c1)CN2C(=O)c1cccs1 (configuration not stated)
54 | 243 to 245 | NS(=O)(=O)c1ccc(C(=O)NCCc2ccccc2)cc1
55 | 135 to 136 | CCOC(=O)CCCCCCCn1c(C)nc(-c2ccccc2)c1-c1ccccc1
56 | 233 to 235 | COc1cc2ncnc(C3C(=O)N(C)c4ccccc43)c2cc1OC (configuration not stated)
57 | 220 to 222 | CSc1nc(C)c(Cc2ccccc2)c(=O)[nH]1
58 | 84 to 85 | COC(=O)C1(C)CC(C(=O)Nc2ccc(I)cc2)=NN1c1ccc(F)cc1 (configuration not stated)
59 | 160 | N#Cc1c(N2CCN(CCCCCC(=O)N3Cc4ccccc4C3)CC2)cccc1C(F)(F)F
60 | 168 to 171 | CCOC(=O)c1cn(-c2nc(NCc3ccc(OC)cc3)c(Cl)cc2F)c2c(Cl)c(F)c(F)cc2c1=O
61 | 150 to 152 | NS(=O)(=O)c1ccc(-c2cnn(CC(F)(F)F)c(=O)c2Oc2ccc(F)cc2)cc1
62 | 117 to 118 | CC(=O)NCCN1CCN(c2cccccc2=O)CC1
63 | 129 to 130 | COc1ccccc1C(=NO)c1sccc1Br
64 | 90.8 | Cc1cccc(-c2nc(C)cc(-c3ccccc3Cl)n2)n1
65 | 115 to 117 | COC(=O)c1cc(-c2ccc(S(C)(=O)=O)cc2)n(C2CCCCCC2)n1
66 | 185 to 186 | COCCc1nc2c(N)nc3cc(OCc4ccccc4)ccc3c2n1CC(C)(C)O
67 | 315 | Oc1ccc2c(c1O)C(=Cc1ccnc3ccccc13)c1ccccc1-2
68 | 157 to 158 | CCCCC#CCCOc1cc(/C=C/C(=O)Nc2ccccc2C(=O)O)ccc1OC
69 | 216 to 218 | O=C(O)c1cc(=O)c(Cl)c(-c2ccccc2)o1
70 | 227 to 230 | O=c1oc2c(ccc3ccccc32)c2c1CNCC2
71 | 171 | CC(C)C[C@H](NC(=O)OCc1ccccc1)C(=O)N[C@@H](Cc1ccccc1)C(=O)CS
72 | 56 to 58 | CC(Oc1ccc(OCc2ccccc2)cc1)C(=O)N(C)C#N (configuration not stated)
